Measurements taken from ChEMBL document CHEMBL5291721, “A preclinical secondary pharmacology resource illuminates target-adverse drug reaction associations of marketed drugs” (Nat Commun, 2023).

How the values were obtained:
[1] = biological target: Vasopressin V2 receptor (Homo sapiens, UniProt P30518)
[2] = biological target: T1, Cholecystokinin receptor type A (Homo sapiens, UniProt P32238)
T1 sequence (P32238 whole entry): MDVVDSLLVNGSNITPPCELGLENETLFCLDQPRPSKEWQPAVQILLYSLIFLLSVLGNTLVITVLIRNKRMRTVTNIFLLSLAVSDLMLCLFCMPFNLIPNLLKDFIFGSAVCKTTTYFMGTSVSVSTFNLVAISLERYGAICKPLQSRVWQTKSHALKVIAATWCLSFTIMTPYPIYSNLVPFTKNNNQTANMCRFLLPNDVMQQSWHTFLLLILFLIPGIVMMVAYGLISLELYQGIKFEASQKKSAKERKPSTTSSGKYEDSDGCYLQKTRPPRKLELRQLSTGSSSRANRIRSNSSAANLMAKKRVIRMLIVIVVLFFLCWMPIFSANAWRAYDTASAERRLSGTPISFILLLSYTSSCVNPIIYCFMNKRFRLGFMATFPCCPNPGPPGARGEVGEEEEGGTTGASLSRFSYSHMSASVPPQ

[3] = biological target: T2, Muscarinic acetylcholine receptor M2 (Homo sapiens, UniProt P08172); format: functional, cell-based
T2 sequence (P08172 whole entry): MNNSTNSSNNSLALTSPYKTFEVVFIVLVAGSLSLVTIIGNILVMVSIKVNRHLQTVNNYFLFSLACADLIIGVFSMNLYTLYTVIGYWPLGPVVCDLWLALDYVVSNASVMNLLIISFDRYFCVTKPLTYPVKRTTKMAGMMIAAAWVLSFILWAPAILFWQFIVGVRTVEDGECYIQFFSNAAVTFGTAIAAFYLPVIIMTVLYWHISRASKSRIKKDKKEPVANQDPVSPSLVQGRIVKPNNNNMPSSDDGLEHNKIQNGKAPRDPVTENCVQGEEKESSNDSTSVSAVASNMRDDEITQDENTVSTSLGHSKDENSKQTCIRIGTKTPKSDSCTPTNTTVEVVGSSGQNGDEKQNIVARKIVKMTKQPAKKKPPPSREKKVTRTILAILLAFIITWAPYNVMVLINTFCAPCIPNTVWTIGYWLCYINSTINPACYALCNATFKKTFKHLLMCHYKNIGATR

[4] = biological target: Gamma-aminobutyric acid receptor subunit alpha-1 (Rattus norvegicus, UniProt P62813); format: functional
Chain of Gamma-aminobutyric acid receptor subunit alpha-1 (P62813 whole entry): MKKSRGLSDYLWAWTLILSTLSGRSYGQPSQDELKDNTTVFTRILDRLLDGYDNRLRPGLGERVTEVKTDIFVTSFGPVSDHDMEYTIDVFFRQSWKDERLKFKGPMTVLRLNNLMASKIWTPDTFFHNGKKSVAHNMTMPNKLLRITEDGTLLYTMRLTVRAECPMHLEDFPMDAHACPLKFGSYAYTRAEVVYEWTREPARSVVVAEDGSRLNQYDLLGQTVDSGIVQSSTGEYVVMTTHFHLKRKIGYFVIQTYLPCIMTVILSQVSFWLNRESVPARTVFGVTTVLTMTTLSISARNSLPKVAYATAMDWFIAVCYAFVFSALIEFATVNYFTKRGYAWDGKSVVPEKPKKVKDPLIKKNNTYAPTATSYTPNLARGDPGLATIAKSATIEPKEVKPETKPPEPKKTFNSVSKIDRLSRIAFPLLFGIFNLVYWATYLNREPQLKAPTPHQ

[5] = biological target: Kappa-type opioid receptor (Homo sapiens, UniProt P41145)
Chain of Kappa-type opioid receptor (P41145 whole entry): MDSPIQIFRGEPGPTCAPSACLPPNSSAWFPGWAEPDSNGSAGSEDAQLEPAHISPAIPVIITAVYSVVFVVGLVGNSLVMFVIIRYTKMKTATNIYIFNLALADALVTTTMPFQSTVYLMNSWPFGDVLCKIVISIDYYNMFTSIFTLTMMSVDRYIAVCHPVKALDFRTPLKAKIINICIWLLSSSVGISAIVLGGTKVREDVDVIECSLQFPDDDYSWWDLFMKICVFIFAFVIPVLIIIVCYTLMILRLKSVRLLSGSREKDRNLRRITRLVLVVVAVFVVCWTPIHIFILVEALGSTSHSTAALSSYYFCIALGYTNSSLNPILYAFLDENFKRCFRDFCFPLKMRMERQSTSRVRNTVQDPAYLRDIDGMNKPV

[6] = biological target: T3, Thromboxane A2 receptor (Homo sapiens, UniProt P21731)
T3 sequence (P21731 whole entry): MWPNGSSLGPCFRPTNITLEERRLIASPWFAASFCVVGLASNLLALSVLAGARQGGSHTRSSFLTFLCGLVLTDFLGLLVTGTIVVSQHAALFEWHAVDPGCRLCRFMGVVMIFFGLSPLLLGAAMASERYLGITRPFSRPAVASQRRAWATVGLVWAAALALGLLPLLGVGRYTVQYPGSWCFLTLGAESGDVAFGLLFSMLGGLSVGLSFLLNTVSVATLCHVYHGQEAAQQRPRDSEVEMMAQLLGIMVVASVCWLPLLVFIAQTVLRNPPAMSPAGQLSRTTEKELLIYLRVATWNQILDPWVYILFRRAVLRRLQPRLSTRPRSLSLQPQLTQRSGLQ

[7] = biological target: T4, Amine oxidase [flavin-containing] A (Homo sapiens, UniProt P21397); format: functional
T4 sequence (P21397 whole entry): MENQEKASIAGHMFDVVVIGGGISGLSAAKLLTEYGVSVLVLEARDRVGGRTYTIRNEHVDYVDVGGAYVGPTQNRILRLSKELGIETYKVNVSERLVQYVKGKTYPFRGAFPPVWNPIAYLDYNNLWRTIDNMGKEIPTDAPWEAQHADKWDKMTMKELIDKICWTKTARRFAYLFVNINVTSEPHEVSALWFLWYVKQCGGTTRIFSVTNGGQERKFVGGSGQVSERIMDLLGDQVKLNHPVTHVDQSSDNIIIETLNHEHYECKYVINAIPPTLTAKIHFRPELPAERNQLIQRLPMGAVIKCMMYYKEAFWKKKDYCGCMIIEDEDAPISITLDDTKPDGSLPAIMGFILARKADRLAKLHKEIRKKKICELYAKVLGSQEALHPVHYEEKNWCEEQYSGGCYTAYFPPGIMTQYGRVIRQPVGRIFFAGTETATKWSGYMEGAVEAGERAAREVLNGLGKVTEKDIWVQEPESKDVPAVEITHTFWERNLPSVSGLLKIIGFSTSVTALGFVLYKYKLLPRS

[8] = biological target: T5, Alpha-1A adrenergic receptor (Homo sapiens, UniProt P35348); format: functional, cell-based
T5 sequence (P35348 whole entry): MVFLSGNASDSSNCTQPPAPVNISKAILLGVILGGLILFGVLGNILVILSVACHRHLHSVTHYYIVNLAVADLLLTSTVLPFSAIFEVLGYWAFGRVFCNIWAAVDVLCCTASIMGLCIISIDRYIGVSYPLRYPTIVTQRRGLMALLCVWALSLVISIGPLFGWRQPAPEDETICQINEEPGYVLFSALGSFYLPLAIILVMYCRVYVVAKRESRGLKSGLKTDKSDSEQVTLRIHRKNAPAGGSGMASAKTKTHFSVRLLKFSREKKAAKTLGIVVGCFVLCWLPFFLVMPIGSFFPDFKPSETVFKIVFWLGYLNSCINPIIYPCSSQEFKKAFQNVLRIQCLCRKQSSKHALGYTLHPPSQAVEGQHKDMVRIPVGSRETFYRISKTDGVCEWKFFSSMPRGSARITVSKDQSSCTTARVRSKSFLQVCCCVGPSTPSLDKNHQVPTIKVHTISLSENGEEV

[9] = biological target: Histamine H1 receptor (Homo sapiens, UniProt P35367)
Chain of Histamine H1 receptor (P35367 whole entry): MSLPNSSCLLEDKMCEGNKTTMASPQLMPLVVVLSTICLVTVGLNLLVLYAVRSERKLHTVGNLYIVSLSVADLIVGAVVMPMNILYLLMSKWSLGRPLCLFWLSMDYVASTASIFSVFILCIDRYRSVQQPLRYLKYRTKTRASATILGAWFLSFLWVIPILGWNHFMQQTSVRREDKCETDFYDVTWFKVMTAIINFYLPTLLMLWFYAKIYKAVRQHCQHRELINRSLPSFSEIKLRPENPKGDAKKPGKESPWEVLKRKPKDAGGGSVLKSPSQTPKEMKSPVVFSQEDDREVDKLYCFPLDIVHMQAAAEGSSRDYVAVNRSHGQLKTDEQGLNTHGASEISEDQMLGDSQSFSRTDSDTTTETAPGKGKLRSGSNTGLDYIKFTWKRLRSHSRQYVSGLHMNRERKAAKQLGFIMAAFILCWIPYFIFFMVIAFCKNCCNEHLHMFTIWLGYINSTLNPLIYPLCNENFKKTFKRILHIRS
Also: assay procedure not described here.

Chain of Vasopressin V2 receptor (P30518 whole entry): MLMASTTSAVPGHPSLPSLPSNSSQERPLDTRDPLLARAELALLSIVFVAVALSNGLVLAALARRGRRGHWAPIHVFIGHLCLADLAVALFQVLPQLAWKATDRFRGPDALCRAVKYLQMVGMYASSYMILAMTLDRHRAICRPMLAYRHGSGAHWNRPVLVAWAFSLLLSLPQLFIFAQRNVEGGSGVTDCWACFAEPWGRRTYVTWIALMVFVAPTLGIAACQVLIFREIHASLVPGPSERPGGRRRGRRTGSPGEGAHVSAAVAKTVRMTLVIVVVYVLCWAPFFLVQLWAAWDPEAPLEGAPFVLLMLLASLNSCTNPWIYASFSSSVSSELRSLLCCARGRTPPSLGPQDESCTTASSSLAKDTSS

SMILES	AC50 [1]	AC50 [2]	AC50 [3]	AC50 [4]	AC50 [5]	AC50 [6]	AC50 [7]	AC50 [8]	AC50 [9]
CC(C)(C)NC[C@H](O)COc1nsnc1N1CCOCC1 [TIMOLOL]	> 30 µM	> 30 µM	> 30 µM	> 30 µM	> 30 µM	> 30 µM	> 30 µM	> 30 µM	
[H]/N=C(/N)N[C@H]1[C@H](O)[C@@H](O)[C@H](O[C@@H]2O[C@@H](C)[C@](O)(C=O)[C@H]2O[C@@H]2O[C@@H](CO)[C@H](O)[C@@H](O)[C@@H]2NC)[C@@H](N/C(N)=N\[H])[C@@H]1O [STREPTOMYCIN]	> 30 µM	> 30 µM	> 30 µM	> 30 µM	> 30 µM	> 30 µM	> 30 µM	> 30 µM	
COc1ccc(/C=C/C(=O)Nc2ccccc2C(=O)O)cc1OC	> 30 µM	> 30 µM	> 30 µM	> 30 µM	> 30 µM	> 30 µM	> 30 µM		
Nc1nc2c(c(=O)[nH]1)N(C=O)C(CNc1ccc(C(=O)N[C@@H](CCC(=O)O)C(=O)O)cc1)CN2 (stereo not given in full) [LEUCOVORIN]	> 30 µM	> 30 µM	> 30 µM	> 30 µM	> 30 µM	> 30 µM	> 30 µM	> 30 µM	
CS(=O)(=O)OCCCCOS(C)(=O)=O [BUSULFAN]	> 30 µM	> 30 µM	> 30 µM	> 30 µM	> 30 µM		> 30 µM	> 30 µM	
COc1ccc(C(CN(C)C)C2(O)CCCCC2)cc1 (stereo not given) [VENLAFAXINE]	> 30 µM	> 30 µM	> 10 µM	> 10 µM	> 10 µM		> 10 µM	> 30 µM	
CC(C)(C)NCC(O)c1cc(Cl)c(N)c(Cl)c1 (stereo not given) [CLENBUTEROL]	> 30 µM	> 30 µM	> 30 µM	> 30 µM	28 µM	> 30 µM	> 30 µM	> 30 µM	
NCCCC(O)(P(=O)(O)O)P(=O)(O)O [ALENDRONIC ACID]	> 30 µM	> 30 µM		> 10 µM	> 10 µM	> 30 µM	> 10 µM		
CC(C)CC(N(C)C)C1(c2ccc(Cl)cc2)CCC1 (stereo not given) [SIBUTRAMINE]	> 30 µM	> 30 µM	19 µM	> 10 µM		> 30 µM	> 10 µM	> 30 µM	
Nc1ccn([C@@H]2O[C@H](CO)[C@@H](O)C2(F)F)c(=O)n1 [GEMCITABINE]	> 30 µM	> 30 µM	> 10 µM	> 10 µM	> 10 µM	> 30 µM	> 10 µM	> 30 µM	
COc1cc2c(Nc3ccc(Br)cc3F)ncnc2cc1OCC1CCN(C)CC1 [VANDETANIB]	> 30 µM	> 10 µM	21 µM	> 30 µM	> 30 µM		> 30 µM	22 µM	
Cc1cccc(N(C)C(=S)Oc2ccc3ccccc3c2)c1 [TOLNAFTATE]	> 10 µM	> 10 µM	> 10 µM	> 10 µM	> 10 µM	> 10 µM	> 30 µM	> 30 µM	
CCCNC(C)C(=O)Nc1ccccc1C (stereo not given) [PRILOCAINE]	> 30 µM	> 30 µM	> 30 µM	> 30 µM	> 30 µM		> 30 µM	> 30 µM	
Nc1ccc(C(=O)O)c(O)c1 [AMINOSALICYLIC ACID]	> 30 µM	> 30 µM	> 30 µM	> 30 µM	> 30 µM	> 30 µM	> 30 µM	> 30 µM	
COc1cccc2c1C(=O)c1c(O)c3c(c(O)c1C2=O)C[C@@](O)(C(C)=O)C[C@@H]3O[C@H]1C[C@H](N)[C@H](O)[C@H](C)O1 [DAUNORUBICIN]	> 10 µM	24 µM		> 30 µM	> 30 µM	25 µM	> 30 µM		
CCn1cc(C(=O)O)c(=O)c2cc(F)c(N3CCN(C)CC3)cc21 [PEFLOXACIN]	> 30 µM	> 30 µM	> 30 µM	> 30 µM			> 30 µM		
CN1[C@@H]2CC[C@H]1C[C@@H](OC(=O)c1c[nH]c3ccccc13)C2 [TROPISETRON]	> 30 µM	> 10 µM	> 30 µM	0.5 µM	> 30 µM	> 30 µM	> 30 µM	> 30 µM	
COC1=C(OC)C(=O)C(CCCCCCCCCCO)=C(C)C1=O [IDEBENONE]	10.9 µM	> 30 µM	> 10 µM	> 10 µM	> 10 µM	31.2 µM	8.5 µM	> 30 µM	
C[n+]1ccccc1/C=N/O [PRALIDOXIME]				> 30 µM	> 30 µM		> 30 µM	> 30 µM	
C[C@@H]1C[C@H]2[C@@H]3C[C@H](F)C4=CC(=O)C=C[C@]4(C)[C@@]3(F)[C@@H](O)C[C@]2(C)[C@H]1C(=O)CO [DIFLUCORTOLONE]							> 30 µM		> 30 µM
COc1cc(OC)c(C(=O)CCCN2CCCC2)c(OC)c1 [BUFLOMEDIL]	> 30 µM	> 30 µM	> 30 µM	> 30 µM	4.3 µM	> 30 µM	> 30 µM	> 30 µM	
CC(=O)OCC(CCn1cnc2cnc(N)nc21)COC(C)=O [FAMCICLOVIR]	> 30 µM	> 30 µM	> 10 µM	> 10 µM	> 10 µM	> 30 µM	> 10 µM	> 30 µM	
CCCCCCNC(=O)n1cc(F)c(=O)[nH]c1=O [CARMOFUR]	> 30 µM	> 30 µM	> 30 µM	> 30 µM	> 30 µM	> 30 µM	> 30 µM		
